The results in this text go back to patent US20230107216A1, “PANTETHEINE DERIVATIVES AND USES THEREOF” (Comet Therapeutics, Inc., priority 2018, published 2023).

For one experiment, the system named is HepG2 cells. The experiment in a line: MitoBiogenesis In-Cell ELISA (COX-I, SDH-A). Format: cell-based. The settings on record: Homo sapiens, 168 h, 10 uM, 7 days, read-out: % increase in Mitochondrial Biogenesis. In a few lines:
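HepG2 cells were plated, adhered overnight at 37 °C/5% CO2, then exposed to test compounds (50–10 μM) in DMEM with 10% FBS for 7 days without media change; vehicle was 0.2% DMSO. COX-I and SDH-A were measured by in-cell ELISA and reported as signal relative to vehicle, n=2.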
In general terms: An ELISA detects its analyte on a solid surface through an enzyme-linked reagent.
As to `CC(C)C(=O)CC(=O)SCCNC(=O)CCNC(=O)[C@H](O)C(C)(C)CO` [Compound 1239, (R)—S-(2-(3-(2,4-dihydroxy-3,3-dimethylbutanamido)propanamido)ethyl) 4-methyl-3-oxopentanethioate], the activation at 10 µM is above 5%. As to `CC(C)(CO)[C@@H](OC(=O)CCC(=O)O)C(=O)NCCC(=O)NCCS` [Compound 1311, (R)-4-((4-hydroxy-1-((3-((2-mercaptoethyl)amino)-3-oxopropyl)amino)-3,3-dimethyl-1-oxobutan-2-yl)oxy)-4-oxobutanoic acid], the activation at 10 µM is 5%.

Staying with this experiment, now noted: Homo sapiens, 168 h, 50 uM, 7 days, read-out: % increase in Mitochondrial Biogenesis.
As for `COC(=O)CCC(=O)SCCNC(=O)CCNC(=O)[C@H](O)C(C)(C)CO` [Compound 4, Methyl (R)-4-((2-(3-(2,4-dihydroxy-3,3-dimethylbutanamido)propanamido)ethyl)thio)-4-oxobutanoate], the activation at 50 µM is above 5%. Consider `C/C=C/C(=O)SCCNC(=O)CCNC(=O)[C@H](O)C(C)(C)COP(=O)(O)O` [Compound 82, (R)—S-(2-(3-(2-hydroxy-3,3-dimethyl-4-(phosphonooxy)butanamido)propanamido)ethyl) (E)-but-2-enethioate], for which the activation at 50 µM is above 10%.

In the case of `COC(=O)C(C)C(=O)SCCNC(=O)CCNC(=O)[C@H](O)C(C)(C)CO` (some centres unmarked) [Compound 405], the activation at 50 µM is above 5%. As to `CCC(C)C(=O)CC(=O)SCCNC(=O)CCNC(=O)[C@H](O)C(C)(C)CO` (stereo partly drawn) [Compound 1240, S-(2-(3-((R)-2,4-dihydroxy-3,3-dimethylbutanamido)propanamido)ethyl) 4-methyl-3-oxohexanethioate], the activation at 50 µM is above 20%. As for `CC(O)C(C(=O)SCCNC(=O)CCNC(=O)[C@H](O)C(C)(C)CO)C(C)O` (stereo partly drawn) [Compound 1285, (2R)-2,4-dihydroxy-N-[2-[(2-[[3-hydroxy-2-(1-hydroxyethyl)butanoyl]sulfanyl]ethyl)carbamoyl]ethyl]-3,3-dimethylbutanamide], the activation at 50 µM is above 10%.

A further experiment concerns primary fibroblasts GM00649, GM06225, GM00612, GM00444, GM03672. Description: MMP, ROS and ATP multiplex (ArrayScan). The conditions noted are these: Homo sapiens, Fibroblast; Leigh GM03672; procedure Example 838; 50 μM (table line r25); read-out: Decreased ROS by at least 10%. It is filed as cell-based. The protocol: Cell culture and treatments. Primary adherent fibroblasts were cultured in minimum essential medium (MEM) (Gibco, 25030081) supplemented with 2 mM L-Glutamine (Gibco, 25030081), 15% fetal bovine serum (FBS) (Gibco, 26400044) and 1% penicillin/streptomycin (Gibco, 5140122) at 37° C. and 5% CO2. Cells were collected for either passaging or experiment at ˜70-80% confluence. Cells were obtained by trypsinization and seeded at 10000 cells/well in cell culture microplates (Seahorse Bioscience, 101085-004) and allowed to adhere for 16 hours in culture media. After media was refreshed with DMEM (Agilent Seahorse 103575-100) supplemented with 1 mM glucose and 10% FBS (Gibco, 26400044). At the end of the incubation period, the cells were loaded with the relevant dye/antibody for each cell health marker. The assay provided simultaneous measurement of cell health parameters including cell count, ROS formation (DHE), mitochondrial membrane potential (MitoTracker®) and cellular ATP content (CellTiter-Glo®, Promega). The plates were then scanned using an automated fluorescent cellular imager, ArrayScan® (Thermo Scientific Cellomics). Assay conditions were optimized by one skilled in the art.
Primary cells used in this example were obtained from Coriell Institute for Medical Research and consisted of GM00649, MSUD (Maple Syrup Urine Disease) Tyle IA; GM06225, Kearns-Sayre Syndrome; GM00612, MSUD (Maple Syrup Urine Disease) Tyle II GM00444, Pyruvate Carboxylase Deficiency and GM03672, Leigh Syndrome.
For `CC(C)(CO)[C@@H](O)C(=O)NCCC(=O)NCCSC(=O)CC(=O)CCC(=O)O` [Compound 2, 6-[(2-[3-[(2R)-2,4-dihydroxy-3,3-dimethylbutanamido]propanamido]ethyl)sulfanyl]-4,6-dioxohexanoic acid], the inhibition at 50 µM was at least 10%. On the same count and under the same terms, the result for `CC(=O)OCC(C)(C)[C@@H](O)C(=O)NCCC(=O)NCCSC(=O)CC(=O)CCC(=O)O` [Compound 140, 6-[(2-[3-[(2R)-4-(acetyloxy)-2-hydroxy-3,3-dimethylbutanamido]propanamido]ethyl)sulfanyl]-4,6-dioxohexanoic acid] reads at least 10%. With `CCC(=O)CC(=O)SCCNC(=O)CCNC(=O)[C@H](O)C(C)(C)CO` [Compound 382, (2R)-2,4-dihydroxy-3,3-dimethyl-N-[2-([2-[(3-oxopentanoyl)sulfanyl]ethyl]carbamoyl)ethyl]butanamide], the inhibition at 50 µM is at least 10%. Turning to `COC(=O)CC(C(C)=O)C(=O)SCCNC(=O)CCNC(=O)[C@H](O)C(C)(C)CO` (some centres unmarked) [Compound 410], the inhibition at 50 µM was at least 10%. For `CC(C)(CO)[C@@H](O)C(=O)NCCC(=O)NCCSC(=O)CCCO` [Compound 1304, (2R)-2,4-dihydroxy-N-[2-([2-[(4-hydroxybutanoyl)sulfanyl]ethyl]carbamoyl)ethyl]-3,3-dimethylbutanamide], the inhibition at 50 µM is at least 10%.

As to `C[C@H](O)CC(=O)CC(=O)SCCNC(=O)CCNC(=O)[C@H](O)C(C)(C)CO` [Compound 1306, (2R)-2,4-dihydroxy-N-[2-[(2-[[(5S)-5-hydroxy-3-oxohexanoyl]sulfanyl]ethyl)carbamoyl]ethyl]-3,3-dimethylbutanamide], the inhibition at 50 µM is at least 10%.

The same experiment, now with this note: Homo sapiens, Fibroblast; PC GM00444; procedure Example 838; 5 μM; read-out: Decreased ROS by at least 10%.
For `CC(C)(CO)[C@@H](O)C(=O)NCCC(=O)NCCSC(=O)CC(=O)CCC(=O)O` [Compound 2, 6-[(2-[3-[(2R)-2,4-dihydroxy-3,3-dimethylbutanamido]propanamido]ethyl)sulfanyl]-4,6-dioxohexanoic acid], the inhibition at 5 µM is at least 10%.
